Laboratory results reported in patent US12157730B2, “Heteroaryl derivative, method for producing same, and pharmaceutical composition comprising same as effective component” (VORONOI INC., priority 2019, dated 2024).

Target: T1, Ba/F3 cell EGFR Exon20 ins NPH (Homo sapiens, UniProt P00533, INS773NPH)
T1 construct: expressed in transfected cells; host or cells: Ba/F3
Assay: Ba/F3 cell proliferation suppression, EGFR Exon20 ins NPH
Type: cell-based
Settings: GI50 class; Ba/F3 cell line with NPH inserted at Exon20 of EGFR; 72 hours
Procedure, shortened: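 After 72 h compound exposure (twelve 3-fold steps, 0.3 nM–50 um final), live cells were measured by CellTiter-Glo luminescence and growth expressed as % of control to derive GI50. Cells were seeded at 3000–5000 per well a day earlier; Ba/F3 medium contained IL-3; three repeats.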

Row | Compound | Ba/F3 (NPH) Activity
1 | C=CC(=O)Nc1cc(Nc2cc(N3OCC[C@@H]3c3ccc(F)cc3F)ncn2)c(OC)cc1N1CCC(N2CCC(N(C)C)CC2)CC1 [compound 478, N-(5-((6-((R)-3-(2,4-difluorophenyl)isoxazolidine-2-yl)pyrimidine-4-yl)amino)-2-(4-(dimethylamino)-[1,4'-bipiperidine]-1'-yl)-4-methoxyphenyl) acrylamide] | A (GI50 < 50 nM)
2 | C=CC(=O)Nc1cc(Nc2cc(N3OCC[C@@H]3c3cc(F)cc(F)c3)ncn2)cc(N2CCN(C)CC2)c1 [compound 633, N-(3-((6-((R)-3-(3,5-difluorophenyl)isoxazolidine-2-yl)pyrimidine-4-yl)amino)-5-(4-methylpiperazine-1-yl)phenyl)acrylamide] | B (50 nM ≤ GI50 < 500 nM)
3 | C=CC(=O)Nc1cc(Nc2cc(N3OCC[C@@H]3Cc3cccc(F)c3C)ncn2)c(OC)cc1N(C)CCN(C)C [compound 1000, N-(2-((2-(dimethylamino)ethyl) (methyl)amino)-5-((6-((S)-3-(3-fluoro-2-methylbenzyl)isoxazolidine-2-yl)pyrimidine-4-yl)amino)-4-methoxyphenyl) acrylamide] | A (GI50 < 50 nM)
4 | C=CC(=O)Nc1cc(Nc2cc(N3OCC[C@@H]3c3ccc(Cl)c(Cl)c3F)ncn2)c(OC)cc1N1CCC(N2CC[C@@H](N(C)C)C2)CC1 [compound 771, N-(5-((6-((R)-3-(3,4-dichloro-2-fluorophenyl)isoxazolidine-2-yl)pyrimidine-4-yl)amino)-2-(4-((R)-3-(dimethylamino)pyrolidine-1-yl)piperidine-1-yl)-4-methoxyphenyl) acrylamide] | B (50 nM ≤ GI50 < 500 nM)
5 | C=CC(=O)Nc1cc(Nc2cc(N3OCC[C@@H]3c3cccc(C)c3F)ncn2)c(OC)cc1N1CCN(CC)CC1 [compound 847, N-(2-(4-ethylpiperazine-1-yl)-5-((6-((R)-3-(2-fluoro-3-methylphenyl)isoxazolidine-2-yl)pyrimidine-4-yl)amino)-4-methoxyphenyl) acrylamide] | A (GI50 < 50 nM)
6 | C=CC(=O)Nc1cc(Nc2cc(N3OCC[C@@H]3c3ccc(C)nc3)ncn2)c(OC)cc1N1CCOCC1 [Example 43] | B (50 nM ≤ GI50 < 500 nM)
7 | C=CC(=O)Nc1cc(Nc2cc(N3OCC[C@@H]3c3ccc(F)c(Cl)c3)ncn2)c(OC)cc1N1CCN(CC)CC1 [compound 723, N-(5-((6-((R)-3-(3-chloro-4-fluorophenyl)isoxazolidine-2-yl)pyrimidine-4-yl)amino)-2-(4-ethylpiperazine-1-yl)-4-methoxyphenyl) acrylamide] | A (GI50 < 50 nM)
8 | C=CC(=O)Nc1cc(Nc2cc(N3OCC[C@@H]3c3cccc(Cl)c3C)ncn2)c(OC)cc1N1CCC(N2CCN(C3CCC3)CC2)CC1 [Example 188, N-(5-((6-((R)-3-(3-chloro-2-methylphenyl)isoxazolidine-2-yl)pyrimidine-4-yl)amino)-2-(4-(4-cyclobutylpiperazine-1-yl)piperidine-1-yl)-4-methoxyphenyl) acrylamide] | A (GI50 < 50 nM)
9 | C=CC(=O)Nc1cc(Nc2cc(N3OCC[C@@H]3c3cccc(F)c3F)ncn2)c(OC)cc1N1CCC(N2CCN(C3CC3)CC2)CC1 [Example 127, N-(2-(4-(4-cyclopropylpiperazine-1-yl)piperidine-1-yl)-5-((6-((R)-3-(2,3-difluorophenyl)isoxazolidine-2-yl)pyrimidine-4-yl)amino)-4-methoxyphenyl) acrylamide] | A (GI50 < 50 nM)
10 | C=CC(=O)Nc1cc(Nc2cc(N3OCC[C@@H]3c3cccc(C)c3F)ncn2)c(OC)cc1N1CCC(N(C)C)CC1 [compound 864, N-(2-(4-(dimethylamino)piperidine-1-yl)-5-((6-((R)-3-(2-fluoro-3-methylphenyl)isoxazolidine-2-yl)pyrimidine-4-yl)amino)-4-methoxyphenyl) acrylamide] | A (GI50 < 50 nM)
11 | C=CC(=O)Nc1cc(Nc2cc(N3OCC[C@@H]3c3ccc(C)nc3)ncn2)c(OC)cc1N1CCC(N2CCN(C3CC3)CC2)CC1 [Example 67, N-(2-(4-(4-cyclopropylpiperazine-1-yl)piperidine-1-yl)-4-methoxy-5-((6-((R)-3-(6-methylpyridine-3-yl)isoxazolidine-2-yl)pyrimidine-4-yl)amino)phenyl) acrylamide] | B (50 nM ≤ GI50 < 500 nM)
12 | C=CCN1CCN(C2CCN(c3cc(OC)c(Nc4cc(N5OCC[C@@H]5Cc5cccc(Cl)c5Cl)ncn4)cc3NC(=O)C=C)CC2)CC1 [compound 1024, N-(2-(4-(4-allylpiperazine-1-yl)piperidine-1-yl)-5-((6-((S)-3-(2,3-dichlorobenzyl)isoxazolidine-2-yl)pyrimidine-4-yl)amino)-4-methoxyphenyl) acrylamide] | A (GI50 < 50 nM)
13 | C=CC(=O)Nc1cc(Nc2cc(N3OCC[C@@H]3c3cccc(Cl)c3F)ncn2)c(OC)cc1N1CCN(C)CC1 [compound 789, N-(5-((6-((R)-3-(3-chloro-2-fluorophenyl)isoxazolidine-2-yl)pyrimidine-4-yl)amino)-4-methoxy-2-(4-methylpiperazine-1-yl)phenyl)acrylamide] | A (GI50 < 50 nM)
14 | C=CC(=O)Nc1cc(Nc2cc(N3OCC[C@@H]3c3ccc(F)cc3F)ncn2)c(OC)cc1N1CCC(N2CCN(C(C)=O)CC2)CC1 [compound 427, N-(2-(4-(4-acetylpiperazine-1-yl)piperidine-1-yl)-5-((6-((R)-3-(2,4-difluorophenyl)isoxazolidine-2-yl)pyrimidine-4-yl)amino)-4-methoxyphenyl) acrylamide] | A (GI50 < 50 nM)

Continued, values first:

Row | Ba/F3 (NPH) Activity | Compound
15 | A (GI50 < 50 nM) | C#Cc1cccc([C@H]2CCON2c2cc(Nc3cc(NC(=O)C=C)c(N4CCN(C)CC4)cc3OC)ncn2)c1 [compound 617, N-(5-((6-((R)-3-(3-ethynylphenyl)isoxazolidine-2-yl)pyrimidine-4-yl)amino)-4-methoxy-2-(4-methylpiperazine-1-yl)phenyl)acrylamide]
16 | B (50 nM ≤ GI50 < 500 nM) | C=CC(=O)Nc1cc(Nc2cc(N3OCC[C@@H]3c3cccc(Cl)c3)ncn2)c(OC)cc1N1C[C@@H]2C[C@H]1CO2 [compound 466, N-(2-((1S,4S)-2-oxa-5-azabicyclo[2.2.1]heptane-5-yl)-5-((6-((R)-3-(3-chlorophenyl)isoxazolidine-2-yl)pyrimidine-4-yl)amino)-4-methoxyphenyl) acrylamide]
17 | A (GI50 < 50 nM) | C=CC(=O)Nc1cc(Nc2cc(N3OCC[C@@H]3c3ccc(F)c(Cl)c3)ncn2)c(OC)cc1N1CCC(N2C[C@@H](C)N(C3CC3)C[C@H]2C)CC1 [Example 178, N-(5-((6-((R)-3-(3-chloro-4-fluorophenyl)isoxazolidine-2-yl)pyrimidine-4-yl)amino)-2-(4-((2R,5R)-4-cyclopropyl-2,5-dimethylpiperazine-1-yl)piperidine-1-yl)-4-methoxyphenyl) acrylamide]
18 | B (50 nM ≤ GI50 < 500 nM) | C=CC(=O)Nc1cc(Nc2cc(N3OCC[C@@H]3c3cccc(C#N)c3)ncn2)c(OC)cc1N1CC[C@@H](N(C)C)C1 [compound 395, N-(5-((6-((R)-3-(3-cyanophenyl)isoxazolidine-2-yl)pyrimidine-4-yl)amino)-2-((R)-3-(dimethylamino)pyrolidine-1-yl)-4-methoxyphenyl) acrylamide]
19 | A (GI50 < 50 nM) | C=CC(=O)Nc1cc(Nc2cc(N3OCC[C@@H]3c3cccc(Cl)c3)ncn2)c(OC)cc1N1CCC(N2CCN(C(C)C)CC2)CC1 [compound 461, N-(5-((6-((R)-3-(3-chlorophenyl)isoxazolidine-2-yl)pyrimidine-4-yl)amino)-2-(4-(4-isopropylpiperazine-1-yl)piperidine-1-yl)-4-methoxyphenyl) acrylamide]
20 | A (GI50 < 50 nM) | C=CC(=O)Nc1cc(Nc2cc(N3OCC[C@@H]3c3cccc(OC)c3)ncn2)c(OC)cc1N1CCC(N2C[C@@H]3C[C@H]2CO3)CC1 [Example 27, N-(2-(4-((1S,4S)-2-oxa-5-azabicyclo[2.2.1]heptane-5-yl)piperidine-1-yl)-4-methoxy-5-((6-((R)-3-(3-methoxyphenyl)isoxazolidine-2-yl)pyrimidine-4-yl)amino)phenyl) acrylamide]
21 | A (GI50 < 50 nM) | C=CC(=O)Nc1cc(Nc2cc(N3OCC[C@@H]3c3cccc4ccccc34)ncn2)c(OC)cc1N1CCC(N2CCO[C@H](C)C2)CC1 [compound 536, N-(4-methoxy-2-(4-((R)-2-methylmorpholino)piperidine-1-yl)-5-((6-((R)-3-(naphthalene-1-yl)isoxazolidine-2-yl)pyrimidine-4-yl)amino)phenyl) acrylamide]
22 | B (50 nM ≤ GI50 < 500 nM) | C=CC(=O)Nc1cc(Nc2cc(N3OCC[C@@H]3c3ccc(Cl)cc3)ncn2)c(OC)cc1N1CC[C@H](N2CCOCC2)C1 [compound 734, N-(5-((6-((R)-3-(4-chlorophenyl)isoxazolidine-2-yl)pyrimidine-4-yl)amino)-4-methoxy-2-((S)-3-morpholinopyrolidine-1-yl)phenyl)acrylamide]
23 | A (GI50 < 50 nM) | C=CC(=O)Nc1cc(Nc2cc(N3OCC[C@@H]3c3cccc(F)c3)ncn2)c(OC)cc1N1CCC(N2CC[C@H](N(C)C)C2)CC1 [compound 744, N-(2-(4-((S)-3-(dimethylamino)pyrolidine-1-yl)piperidine-1-yl)-5-((6-((R)-3-(3-fluorophenyl)isoxazolidine-2-yl)pyrimidine-4-yl)amino)-4-methoxyphenyl) acrylamide]
24 | A (GI50 < 50 nM) | C=CC(=O)Nc1cc(Nc2cc(N3OCC[C@@H]3c3cccc(C)c3F)ncn2)c(OC)cc1N1CCC(N2C[C@H]3C[C@@H]2CO3)CC1 [compound 320, N-(2-(4-((1R,4R)-2-oxa-5-azabicyclo[2.2.1]heptane-5-yl)piperidine-1-yl)-5-((6-((R)-3-(2-fluoro-3-methylphenyl)isoxazolidine-2-yl)pyrimidine-4-yl)amino)-4-methoxyphenyl) acrylamide]
